Paper PMC11995724, “Antibiotic target discovery by integrated phenotypic and activity-based profiling of electrophilic fragments” (Cell chemical biology, 2025)
Counter-ions that a name gives are not always drawn.

Assay: in vitro
Details: human, hek293t cells
Method: Mammalian cytotoxicity measurement was performed using Cell Titer-Glo 2.0 Cell Viability Assay (Promega, G9243) according to the manufacturer protocol. In brief, mammalian cells were seeded into 384-well white plates (Greiner, 781080) and incubated at 37°C for one day. Compounds from the Cys-Library were dispensed into the assay plate using epMotion 96. The plates were then incubated at 37°C for two days. An equal volume of Cell Titer-Glo 2.0 reagent was added into each well of the assay plate using epMotion 96 and incubated at 22°C for 10 min, followed by luminescence measurement using a Cytation 5 plate reader (BioTek).

Compound	viability at 48 h, 25 µM
O=C(CCl)N(CC1CCCO1)C1CCS(=O)(=O)C1 (stereo not shown) [5-N16, 2-chloro-N-(1,1-dioxo-1lambda6-thiolan-3-yl)-N-[(oxolan-2-yl)methyl]acetamide]	2.2%
CC(Cl)C(=O)NC1CCc2cc(C#N)ccc21 (stereo not shown) [5-N17, 2-chloro-N-(5-cyano-2,3-dihydro-1H-inden-1-yl)propanamide]	105%
O=C(CCl)N(Cc1ccsc1)C1CC1 [5-N18, 2-chloro-N-cyclopropyl-N-[(thiophen-3-yl)methyl]acetamide]	1.23%
CC(Cl)C(=O)NCCC1=CCCCCC1 (stereo not shown) [5-N19, 2-chloro-N-[2-(cyclohept-1-en-1-yl)ethyl]propanamide]	120%
Cc1c(Cl)cccc1NC(=O)CNC(=O)CCl [5-N20, 2-chloro-N-{[(3-chloro-2-methylphenyl)carbamoyl]methyl}acetamide]	1.4%
CCOC(=O)c1cnn2ccc(NC(=O)C(C)Cl)cc12 (stereo not shown) [5-N21, ethyl 5-(2-chloropropanamido)pyrazolo[1,5-a]pyridine-3-carboxylate]	89.8%
CCSc1nnc(NC(=O)CCl)s1 [5-N22, 2-chloro-N-[5-(ethylsulfanyl)-1,3,4-thiadiazol-2-yl]acetamide]	7.36%
Cc1ccc(CNC(=O)C(C)Cl)cc1 (stereo not shown) [5-O03, 2-chloro-N-[(4-methylphenyl)methyl]propanamide]	94.7%
O=C(CCl)N1CCN(Cc2ccon2)CC1 [5-O04, 2-chloro-1-{4-[(1,2-oxazol-3-yl)methyl]piperazin-1-yl}ethan-1-one]	104%
O=C(CCl)NCCc1cccc(Cl)c1 [5-O05, 2-chloro-N-[2-(3-chlorophenyl)ethyl]acetamide]	36.9%
CC(NC(=O)CCl)c1cn(-c2ccccc2)nn1 (stereo not shown) [5-O06, 2-chloro-N-[1-(1-phenyl-1H-1,2,3-triazol-4-yl)ethyl]acetamide]	4.63%
O=C(CCl)NC1CCN(C(=O)c2ccco2)c2ccccc21 (stereo not shown) [5-O07, 2-chloro-N-[1-(furan-2-carbonyl)-1,2,3,4-tetrahydroquinolin-4-yl]acetamide]	1.59%
CC1CC(NC(=O)CCl)C(=O)N1c1cnn(C)c1 (stereo not shown) [5-O08, 2-chloro-N-[5-methyl-1-(1-methyl-1H-pyrazol-4-yl)-2-oxopyrrolidin-3-yl]acetamide]	100%
O=C(CCl)NC1CCCc2cn(C3CCCC3)nc21 (stereo not shown) [5-O09, 2-chloro-N-(2-cyclopentyl-4,5,6,7-tetrahydro-2H-indazol-7-yl)acetamide]	20.7%
C#Cc1cccc(N(Cc2cc3n(n2)CCCO3)C(=O)CCl)c1 [5-O10, 2-chloro-N-(3-ethynylphenyl)-N-({5H,6H,7H-pyrazolo[3,2-b][1,3]oxazin-2-yl}methyl)acetamide]	0.703%
COc1ccc(CNC(=O)CCl)cc1OC [5-O11, 2-chloro-N-[(3,4-dimethoxyphenyl)methyl]acetamide]	23.8%
CS(=O)(=O)N1CCC(N(CC(F)F)C(=O)CCl)CC1 [5-O12, 2-chloro-N-(2,2-difluoroethyl)-N-(1-methanesulfonylpiperidin-4-yl)acetamide]	1.77%
O=C(CCl)Nc1ccnn1Cc1cccs1 [5-O13, 2-chloro-N-{1-[(thiophen-2-yl)methyl]-1H-pyrazol-5-yl}acetamide]	0.591%
CCC(NC(=O)CCl)c1nc(C)n[nH]1 (stereo not shown) [5-O14, 2-chloro-N-[1-(3-methyl-1H-1,2,4-triazol-5-yl)propyl]acetamide]	96.8%
CC1CN(S(=O)(=O)c2ccc(NC(=O)CCl)cc2)CC(C)O1 (stereo not shown) [5-O15, 2-chloro-N-{4-[(2,6-dimethylmorpholin-4-yl)sulfonyl]phenyl}acetamide]	1.43%
COc1ccccc1C1CSCCCN1C(=O)CCl (stereo not shown) [5-O16, 2-chloro-1-[3-(2-methoxyphenyl)-1,4-thiazepan-4-yl]ethan-1-one]	78.1%
COc1ccc(N(Cc2cccs2)C(=O)CCl)cc1 [5-O17, 2-chloro-N-(4-methoxyphenyl)-N-[(thiophen-2-yl)methyl]acetamide]	0.692%
O=C(CCl)N1CC(NC(=O)C(F)(F)F)CCC1C(F)(F)F (stereo not shown) [5-O18, N-[1-(2-chloroacetyl)-6-(trifluoromethyl)piperidin-3-yl]-2,2,2-trifluoroacetamide]	6.17%
CC(=O)c1ccccc1NC(=O)C(C)Cl (stereo not shown) [5-O19, N-(2-acetylphenyl)-2-chloropropanamide]	90.1%
COC1CCC(N(Cc2cc(C)oc2C)C(=O)CCl)CC1 (stereo not shown) [5-O20, 2-chloro-N-[(2,5-dimethylfuran-3-yl)methyl]-N-(4-methoxycyclohexyl)acetamide]	2.21%
CC(Cl)C(=O)NC1CCCCCC1 (stereo not shown) [5-O21, 2-chloro-N-cycloheptylpropanamide]	105%
COc1ccc(CC2CCN2C(=O)C(C)Cl)cc1 (stereo not shown) [5-O22, 2-chloro-1-{2-[(4-methoxyphenyl)methyl]azetidin-1-yl}propan-1-one]	88.3%
O=C(CCl)N(Cc1cc(F)ccc1F)CC1CCOCC1 [5-P03, 2-chloro-N-[(2,5-difluorophenyl)methyl]-N-[(oxan-4-yl)methyl]acetamide]	0.456%

Compound	viability at 48 h, 25 µM
N#Cc1ccccc1NC(=O)CCl [5-P04, 2-chloro-N-(2-cyanophenyl)acetamide]	0.525%
CNC(=O)c1cc(OC2CCCN(C(=O)CCl)C2)ccn1 (stereo not shown) [5-P05, 4-{[1-(2-chloroacetyl)piperidin-3-yl]oxy}-N-methylpyridine-2-carboxamide]	1.84%
O=C(CCl)NCc1ccccc1Cn1cccn1 [5-P06, 2-chloro-N-({2-[(1H-pyrazol-1-yl)methyl]phenyl}methyl)acetamide]	94%
N#CCCN(C(=O)CCl)c1ccccc1F [5-P07, 2-chloro-N-(2-cyanoethyl)-N-(2-fluorophenyl)acetamide]	1.04%
CC(C1CC1)N(CC(F)(F)F)C(=O)CCl (stereo not shown) [5-P08, 2-chloro-N-(1-cyclopropylethyl)-N-(2,2,2-trifluoroethyl)acetamide]	90.7%
O=C(CCl)NC1CCN(c2ccncc2)CC1 [5-P09, 2-chloro-N-[1-(pyridin-4-yl)piperidin-4-yl]acetamide hydrochloride]	48.1%
Cc1cccc(NC(=O)C(C)Cl)c1 (stereo not shown) [5-P10, 2-chloro-N-(3-methylphenyl)propanamide]	96.2%
CC(NC(=O)CCl)c1cc(C(F)(F)F)[nH]n1 (stereo not shown) [5-P11, 2-chloro-N-{1-[5-(trifluoromethyl)-1H-pyrazol-3-yl]ethyl}acetamide]	0.786%
CC(C)c1ccc(Cn2[nH]ccc2=NC(=O)CCl)cc1 [5-P12, 2-chloro-N-(2-{[4-(propan-2-yl)phenyl]methyl}-2,3-dihydro-1H-pyrazol-3-ylidene)acetamide]	-0.215%
CC(=O)NCc1ccc(C2CCCN2C(=O)CCl)o1 (stereo not shown) [5-P13, N-({5-[1-(2-chloroacetyl)pyrrolidin-2-yl]furan-2-yl}methyl)acetamide]	0.652%
CC(Cl)C(=O)Nc1cccc(C(F)(F)F)c1 (stereo not shown) [5-P14, 2-chloro-N-[3-(trifluoromethyl)phenyl]propanamide]	90.7%
CC(Cl)C(=O)NCc1ncnn1C(C)C (stereo not shown) [5-P15, 2-chloro-N-{[1-(propan-2-yl)-1H-1,2,4-triazol-5-yl]methyl}propanamide]	125%
CC(=O)c1ccc(S(=O)(=O)N2CCN(C(=O)CCl)CC2)cc1 [5-P16, 1-[4-(4-acetylbenzenesulfonyl)piperazin-1-yl]-2-chloroethan-1-one]	1.74%
CC(Cl)C(=O)N(Cc1ccc(Cl)cc1)Cc1cnn(C)c1 (stereo not shown) [5-P17, 2-chloro-N-[(4-chlorophenyl)methyl]-N-[(1-methyl-1H-pyrazol-4-yl)methyl]propanamide]	116%
Cc1cc(C)cc(N(CCC#N)C(=O)CCl)c1 [5-P18, 2-chloro-N-(2-cyanoethyl)-N-(3,5-dimethylphenyl)acetamide]	0.915%
O=C(CN1CCN(C(=O)CCl)CC1)Nc1cccc(F)c1 [5-P19, 2-[4-(2-chloroacetyl)piperazin-1-yl]-N-(3-fluorophenyl)acetamide hydrochloride]	1.84%
Cc1cccc(C)c1NC(=O)CCl [5-P20, 2-chloro-N-(2,6-dimethylphenyl)acetamide]	112%
CC(Cl)C(=O)N1Cc2ccoc2CC(C)(C)C1 (stereo not shown) [5-P21, 2-chloro-1-{7,7-dimethyl-4H,5H,6H,7H,8H-furo[3,2-c]azepin-5-yl}propan-1-one]	132%
COc1ccc(C)cc1NC(=O)C(C)Cl (stereo not shown) [5-P22, 2-chloro-N-(2-methoxy-5-methylphenyl)propanamide]	108%
O=C(CCl)Nc1cccc(NC(=O)c2ccccc2)c1 [6-A03, N-[3-(2-chloroacetamido)phenyl]benzamide]	-0.0459%
COc1c(C)cnc(CN2CCC(N(C)C(=O)C(C)Cl)CC2)c1C (stereo not shown) [6-A04, 2-chloro-N-{1-[(4-methoxy-3,5-dimethylpyridin-2-yl)methyl]piperidin-4-yl}-N-methylpropanamide]	124%
O=C(CCl)Nc1cc(-n2cnnn2)ccc1Cl [6-A05, 2-chloro-N-[2-chloro-5-(1H-1,2,3,4-tetrazol-1-yl)phenyl]acetamide]	0.726%
Cc1csc(Cl)c1NC(=O)CCl [6-A06, 2-chloro-N-(2-chloro-4-methylthiophen-3-yl)acetamide]	0.632%
CC(Cl)C(=O)NC(C)c1ccc2c(c1)CCCC2 (stereo not shown) [6-A07, 2-chloro-N-[1-(5,6,7,8-tetrahydronaphthalen-2-yl)ethyl]propanamide]	93.1%
O=C(CCl)NCCOc1ccc(F)cc1 [6-A08, 2-chloro-N-[2-(4-fluorophenoxy)ethyl]acetamide]	1.34%
CC(Cl)C(=O)Nc1cc(F)ccc1F (stereo not shown) [6-A09, 2-chloro-N-(2,5-difluorophenyl)propanamide]	96%
Cc1cc(C)c(-c2cc(NC(=O)CCl)n(-c3ccccc3)n2)cc1C [6-A10, 2-chloro-N-[1-phenyl-3-(2,4,5-trimethylphenyl)-1H-pyrazol-5-yl]acetamide]	0.264%
